Results published in publication PMC8530378, “Comparison of: (2S,4R)-4-[^18F]Fluoroglutamine, [^11C]Methionine, and 2-Deoxy-2-[^18F]Fluoro-D-Glucose and Two Small-Animal PET/CT Systems Imaging Rat Gliomas” (Frontiers in Oncology, 2021).

Columns and labels:
orthotopic BT4C gliomas = assay: Dynamic PET/CT imaging of orthotopic BT4C gliomas, tumor-to-healthy brain uptake ratio (TBR); type: in vivo; details: dynamic PET images, both cameras pooled, BT4C glioma-bearing BDIX rats
Procedure: The 16 glioma-bearing BDIX-Ifz rats (herein "BDIX") for imaging studies (8 weeks old, 9 males and 7 females) were anesthetized under 2-2.5% isoflurane and given buprenorphine (0.01 mg/kg) and carprofen (5 mg/kg) for analgesia during surgery. […] All animals were sacrificed after either the final imaging (PET studies) or the final blood sample collection (metabolism studies) under deep isoflurane anesthesia (4%) via cervical dislocation after cardiac puncture to collect terminal blood samples. […] The injected amount of radioactivity also varied based on camera and radionuclide. […] Each PET image was separately examined, in the initial 20 s of frames for the amino-acid-based radiopharmaceuticals and 40-60 min frames for [^18F]FDG, to manually delineate heart left ventricle cavity voxels to use as a blood radioactivity estimation region of interest (ROI). […] The dynamic PET image data was then extracted from each separate image and converted to standardized uptake values (SUV) which account for ROI volume, mean ROI radioactivity, subject weight, and total injected radioactivity dose (corrected for decay, residual syringe and cannula radioactivity). The results are shown as SUV ROI radioactivity curves over time as well as tumor-to-healthy brain region (TBR) ratios for improved comparisons. […]

[1] = system: BT4C glioma and healthy brain ROIs; assay: Patlak plot (irreversible uptake model) of dynamic [^18F]FGln PET; type: in vivo, BDIX rats; details: n = 13; for Ic (AB) y intercept: arterial blood input; for Ic (FP) y intercept: free parent plasma input; for Ic (P) y intercept: unbound plasma input
Text: (§1) The dynamic PET image data was then extracted from each separate image and converted to standardized uptake values (SUV) which account for ROI volume, mean ROI radioactivity, subject weight, and total injected radioactivity dose (corrected for decay, residual syringe and cannula radioactivity). The results are shown as SUV ROI radioactivity curves over time as well as tumor-to-healthy brain region (TBR) ratios for improved comparisons. [^18F]FGln uptake data and blood radioactivity data (corrected for bioavailability fraction over time) were also input into multiple pharmacokinetic models described in the "[^18F]FGln Pharmacokinetic Modeling" section.
(§2) Blood input values from the heart left ventricle ROI in the PET image data were corrected for bioavailable fraction with Eqn. 2. Logan ([25]), Patlak ([26]), and two two-compartment models ([27]) (reversible and irreversible) were applied to whole-blood, unbound plasma fraction, and unbound plasma fraction assayed for parent-radiopharmaceutical purity as inputs for tumor and healthy brain ROIs. Mean, standard deviation, and two-tailed unpaired Student's t-test (for camera comparison, modeling values, and gender differences) p-values are reported where applicable.

[2] = system: BT4C glioma and healthy brain ROIs; assay: Irreversible two-tissue compartment model of dynamic [^18F]FGln PET; type: in vivo, BDIX rats; details: irreversible 2-tissue model, n = 13; for K1 (AB) plasma to tissue transport rate / K1/k2 (AB) equilibrium distribution volume / k3 (AB) rate constant / k3/(k2+k3) (AB): arterial blood input; for K1 (FP) plasma to tissue transport rate / K1/k2 (FP) equilibrium distribution volume / k3 (FP) rate constant / k3/(k2+k3) (FP): free parent plasma input; for K1 (P) plasma to tissue transport rate / K1/k2 (P) equilibrium distribution volume / k3 (P) rate constant / k3/(k2+k3) (P): unbound plasma input
Text: as §1, §2

BT4C gliomas = assay: Ex vivo brain autoradiography, tumor-to-healthy brain uptake ratio; type: in vivo; details: ex vivo autoradiography of brain slices, BT4C glioma-bearing BDIX rats
Procedure: Ex vivo biodistribution studies were performed for [^18F]FGln with a complete organ list and results are listed in the Supplementary Material Some subjects from each radiopharmaceutical imaging group were sacrificed for autoradiographical and histological studies immediately after PET imaging. All autoradiography images were analyzed with Carimas software (Turku PET Centre, Turku, Finland).
The excised brains containing tumors were frozen with liquid nitrogen, sectioned with a Leica CM3050S cryotome into alternating 20 and 8 µm slices on different slides for hematoxylin/eosin and future histochemical staining respectively. […] The slides were then stained with hematoxylin/eosin and digitally scanned with a Pannoramic 250 Flash slide scanner (3DHistech, Budapest, Hungary) Autoradiographs and light micrographs were then aligned in Carimas software (Turku PET Centre, Turku, Finland) and analyzed therein.

In the case of `NC(=O)[C@H]([18F])C[C@H](N)C(=O)O` [[^18F]FGln, (2S,4R)-4-[^18F]Fluoroglutamine], the “Average tumor-to-healthy brain tissue uptake ratio (TBR), maximum” value (orthotopic BT4C gliomas) is reported as 1.99 ± 0.19, the “Ic (AB) y intercept” value ([1]; healthy brain) is reported as 0.376 ± 0.114 and the “Ic (FP) y intercept” value ([1]; healthy brain) is reported as 0.495 ± 0.195. The “Ic (P) y intercept” value ([1]; healthy brain) was 0.236 ± 0.076, the “Ic (AB) y intercept” value ([1]; tumor) was 0.676 ± 0.221 and the “Ic (FP) y intercept” value ([1]; tumor) was 0.823 ± 0.376. For the same compound, the “Ic (P) y intercept” value ([1]; tumor) was 0.418 ± 0.149, the “K1 (AB) plasma to tissue transport rate” value ([2]; healthy brain) was 0.063 ± 0.053 mL min^-1 mL^-1 and the “K1/k2 (AB) equilibrium distribution volume” value ([2]; healthy brain) was 0.338 ± 0.159 mL mL^-1. For the same compound, the “k3 (AB) rate constant” value ([2]; healthy brain) was 0.022 ± 0.010 min⁻¹, the “k3/(k2+k3) (AB)” value ([2]; healthy brain) was 0.126 ± 0.068 min min^-1 and the “K1 (FP) plasma to tissue transport rate” value ([2]; healthy brain) was 0.033 ± 0.018 mL min^-1 mL^-1. The “K1/k2 (FP) equilibrium distribution volume” value ([2]; healthy brain) was 0.524 ± 0.324 mL mL^-1, the “k3 (FP) rate constant” value ([2]; healthy brain) was 0.064 ± 0.063 min⁻¹ and the “k3/(k2+k3) (FP)” value ([2]; healthy brain) was 0.420 ± 0.146 min min^-1. For the same compound, the “K1 (P) plasma to tissue transport rate” value ([2]; healthy brain) was 0.024 ± 0.017 mL min^-1 mL^-1, the “K1/k2 (P) equilibrium distribution volume” value ([2]; healthy brain) was 0.221 ± 0.105 mL mL^-1 and the “k3 (P) rate constant” value ([2]; healthy brain) was 0.028 ± 0.014 min⁻¹. For the same compound, the “k3/(k2+k3) (P)” value ([2]; healthy brain) was 0.215 ± 0.096 min min^-1, the “K1 (AB) plasma to tissue transport rate” value ([2]; tumor) was 0.088 ± 0.039 mL min^-1 mL^-1 and the “K1/k2 (AB) equilibrium distribution volume” value ([2]; tumor) was 0.876 ± 0.29 mL mL^-1. The “k3 (AB) rate constant” value ([2]; tumor) was 0.017 ± 0.005 min⁻¹, the “k3/(k2+k3) (AB)” value ([2]; tumor) was 0.156 ± 0.078 min min^-1 and the “K1 (FP) plasma to tissue transport rate” value ([2]; tumor) was 0.083 ± 0.113 mL min^-1 mL^-1. For the same compound, the “K1/k2 (FP) equilibrium distribution volume” value ([2]; tumor) was 1.841 ± 0.967 mL mL^-1, the “k3 (FP) rate constant” value ([2]; tumor) was 0.105 ± 0.246 min⁻¹ and the “k3/(k2+k3) (FP)” value ([2]; tumor) was 0.385 ± 0.157 min min^-1. The “K1 (P) plasma to tissue transport rate” value ([2]; tumor) was 0.037 ± 0.015 mL min^-1 mL^-1, the “K1/k2 (P) equilibrium distribution volume” value ([2]; tumor) was 0.685 ± 0.330 mL mL^-1 and the “k3 (P) rate constant” value ([2]; tumor) was 0.017 ± 0.007 min⁻¹. The “k3/(k2+k3) (P)” value ([2]; tumor) was 0.226 ± 0.078 min min^-1 and the “Tumor-to-healthy brain uptake ratio” value (BT4C gliomas) was 4.07 ± 0.49.
